molecular target: T1, human DP2 (Homo sapiens, UniProt Q9Y5Y4); assay: DP-2 binding inhibition assay (3H-PGD2, membranes of DP2-expressing K562 cells); details: 0.1% BSA, read-out: EC50 (nM) 0.1% BSA
T1 construct: expressed in transfected cells; membranes prepared
T1 sequence (Q9Y5Y4 1-395): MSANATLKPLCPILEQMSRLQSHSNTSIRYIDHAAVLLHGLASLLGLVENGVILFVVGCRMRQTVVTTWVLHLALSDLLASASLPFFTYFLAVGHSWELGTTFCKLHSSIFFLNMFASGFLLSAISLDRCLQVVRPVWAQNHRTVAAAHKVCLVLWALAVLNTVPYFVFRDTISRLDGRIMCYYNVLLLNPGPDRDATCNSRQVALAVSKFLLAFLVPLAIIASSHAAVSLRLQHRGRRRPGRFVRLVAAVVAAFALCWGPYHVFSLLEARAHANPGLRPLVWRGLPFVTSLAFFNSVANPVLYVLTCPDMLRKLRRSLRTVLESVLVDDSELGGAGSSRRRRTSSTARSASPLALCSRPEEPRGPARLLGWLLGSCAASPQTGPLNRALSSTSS
Procedure, shortened: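 Membranes from K562 clones stably expressing human DP2 were incubated 60 min at room temperature with 3H-PGD2 and compound, with 0.1% BSA, 1% HSA or 4% HSA, then filtered and counted.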

SMILES | EC50 [nM]
N#Cc1cc2c(cc1Oc1ccc(C(=O)Nc3ccc4nc(C(F)(F)F)[nH]c4c3)cc1)OCCC2C(=O)O (stereo not shown) [Example 191, 6-cyano-7-(4-(2-(trifluoromethyl)-1H-benzo[d]imidazol-6-ylcarbamoyl)phenoxy) chroman-4-carboxylic acid] | 41.5
N#Cc1cc2c(cc1Oc1ccc(C(=O)Nc3ccc4[nH]ncc4c3)cc1)OCCC2C(=O)O (stereo not shown) [Example 192, 7-(4-(1H-indazol-5-ylcarbamoyl)phenoxy)-6-cyanochroman-4-carboxylic acid] | 492
N#Cc1cc2c(cc1Oc1ccc(C(=O)Nc3ccc4cn[nH]c4c3)cc1)OCCC2C(=O)O (stereo not shown) [Example 193, 7-(4-(1H-indazol-6-ylcarbamoyl)phenoxy)-6-cyanochroman-4-carboxylic acid] | 36.7
N#Cc1cc2c(cc1Oc1ccc(C(=O)Nc3nc4ccccc4s3)cc1)OCCC2C(=O)O (stereo not shown) [Example 194, 7-(4-(benzo[d]thiazol-2-ylcarbamoyl)phenoxy)-6-cyanochroman-4-carboxylic acid] | 10.7
N#Cc1cc2c(cc1Oc1ccc(C(=O)Nc3nc4ccc(F)cc4s3)cc1)OCCC2C(=O)O (stereo not shown) [Example 195, 6-cyano-7-(4-(6-fluorobenzo[d]thiazol-2-ylcarbamoyl)phenoxy) chroman-4-carboxylic acid] | 12.9
N#Cc1cc2c(cc1Oc1ccc(C(=O)Nc3nc4ccc(Cl)cc4s3)cc1)OCCC2C(=O)O (stereo not shown) [Example 196] | 11
COc1ccc2nc(NC(=O)c3ccc(Oc4cc5c(cc4C#N)C(C(=O)O)CCO5)cc3)sc2c1 (stereo not shown) [Example 197, 6-cyano-7-(4-(6-methoxybenzo[d]thiazol-2-ylcarbamoyl)phenoxy) chroman-4-carboxylic acid] | 9.3
Cc1noc(C)c1CCNC(=O)c1ccc(Oc2cc3c(cc2C#N)C(C(=O)O)CCO3)cc1 (stereo not shown) [Example 198, 6-cyano-7-(4-(2-(3,5-dimethylisoxazol-4-yl)ethylcarbamoyl)phenoxy)chroman-4-carboxylic acid] | 1240
N#Cc1cc2c(cc1Oc1ccc(C(=O)Nc3nc4c(Cl)cccc4s3)cc1)OCCC2C(=O)O (stereo not shown) [Example 199] | 10.8
Cc1cc2nc(NC(=O)c3ccc(Oc4cc5c(cc4C#N)C(C(=O)O)CCO5)cc3)sc2cc1C (stereo not shown) [Example 200, 6-cyano-7-(4-(5,6-dimethylbenzo[d]thiazol-2-ylcarbamoyl)phenoxy) chroman-4-carboxylic acid] | 7.6
N#Cc1cc2c(cc1Oc1ccc(C(=O)Nc3nc4ccc(C(F)(F)F)cc4s3)cc1)OCCC2C(=O)O (stereo not shown) [Example 201, 6-cyano-7-(4-(6-(trifluoromethyl)benzo[d]thiazol-2-ylcarbamoyl)phenoxy)chroman-4-carboxylic acid] | 5.1
N#Cc1cc2c(cc1Oc1ccc(C(=O)Nc3nc4c(F)cc(F)cc4s3)cc1)OCCC2C(=O)O (stereo not shown) [Example 202, 6-cyano-7-(4-(4,6-difluorobenzo[d]thiazol-2-ylcarbamoyl)phenoxy) chroman-4-carboxylic acid] | 24.5
N#Cc1cc2c(cc1Oc1ccc(C(=O)Nc3nc4ccccc4o3)cc1)OCCC2C(=O)O (stereo not shown) [Example 203, 7-(4-(benzo[d]oxazol-2-ylcarbamoyl)phenoxy)-6-cyanochroman-4-carboxylic acid] | 69

same assay, conditions: 1% HSA, read-out: EC50 (nM) 1% HSA

SMILES | EC50 [nM]
N#Cc1cc2c(cc1Oc1ccc(C(=O)Nc3ccc4nc(C(F)(F)F)[nH]c4c3)cc1)OCCC2C(=O)O (stereo not shown) [Example 191, 6-cyano-7-(4-(2-(trifluoromethyl)-1H-benzo[d]imidazol-6-ylcarbamoyl)phenoxy) chroman-4-carboxylic acid] | 137
N#Cc1cc2c(cc1Oc1ccc(C(=O)Nc3nc4ccccc4s3)cc1)OCCC2C(=O)O (stereo not shown) [Example 194, 7-(4-(benzo[d]thiazol-2-ylcarbamoyl)phenoxy)-6-cyanochroman-4-carboxylic acid] | 1240
N#Cc1cc2c(cc1Oc1ccc(C(=O)Nc3nc4ccc(F)cc4s3)cc1)OCCC2C(=O)O (stereo not shown) [Example 195, 6-cyano-7-(4-(6-fluorobenzo[d]thiazol-2-ylcarbamoyl)phenoxy) chroman-4-carboxylic acid] | 194
N#Cc1cc2c(cc1Oc1ccc(C(=O)Nc3nc4ccc(Cl)cc4s3)cc1)OCCC2C(=O)O (stereo not shown) [Example 196] | 352
COc1ccc2nc(NC(=O)c3ccc(Oc4cc5c(cc4C#N)C(C(=O)O)CCO5)cc3)sc2c1 (stereo not shown) [Example 197, 6-cyano-7-(4-(6-methoxybenzo[d]thiazol-2-ylcarbamoyl)phenoxy) chroman-4-carboxylic acid] | 146

same assay, conditions: 4% HSA, read-out: EC50 (nM) 4% HSA

SMILES | EC50 [nM]
N#Cc1cc2c(cc1Oc1ccc(C(=O)Nc3nc4ccc(C(F)(F)F)cc4s3)cc1)OCCC2C(=O)O (stereo not shown) [Example 201, 6-cyano-7-(4-(6-(trifluoromethyl)benzo[d]thiazol-2-ylcarbamoyl)phenoxy)chroman-4-carboxylic acid] | 355
N#Cc1cc2c(cc1Oc1ccc(C(=O)Nc3nnc(-c4ccc(Cl)cc4)s3)cc1)OCCC2C(=O)O (stereo not shown) [Example 204, 7-(4-(5-(4-chlorophenyl)-1,3,4-thiadiazol-2-ylcarbamoyl)phenoxy)-6-cyanochroman-4-carboxylic acid] | 3440
Cc1ccc(-c2csc(NC(=O)c3ccc(Oc4cc5c(cc4C#N)C(C(=O)O)CCO5)cc3)n2)cc1 (stereo not shown) [Example 205, 6-cyano-7-(4-(4-p-tolylthiazol-2-ylcarbamoyl)phenoxy) chroman-4-carboxylic acid] | 96.2
O=C(Nc1nc2ccc(Cl)cc2s1)c1ccc(Oc2cc3c(cc2Cl)C(C(=O)O)CCO3)cc1 (stereo not shown) [Example 207, 6-chloro-7-(4-(6-chlorobenzo[d]thiazol-2-ylcarbamoyl)phenoxy) chroman-4-carboxylic acid] | 105
O=C(Nc1nc2cc(Cl)ccc2o1)c1ccc(Oc2cc3c(cc2Cl)C(C(=O)O)CCO3)cc1 (stereo not shown) [Example 208, 6-chloro-7-(4-(5-chlorobenzo[d]oxazol-2-ylcarbamoyl)phenoxy) chroman-4-carboxylic acid] | 736
O=C(Nc1ccc(-c2ccc(Cl)cc2)nn1)c1ccc(Oc2cc3c(cc2Cl)C(C(=O)O)CCO3)cc1 (stereo not shown) [Example 209, 6-chloro-7-(4-(6-(4-chlorophenyl)pyridazin-3-ylcarbamoyl)phenoxy) chroman-4-carboxylic acid] | 207
O=C(NC1CCN(c2cccc(C(F)(F)F)n2)CC1)c1ccc(Oc2cc3c(cc2Cl)C(C(=O)O)CCO3)cc1 (stereo not shown) [Example 211] | 421
O=C(NCCc1cccn1-c1ccc(C(F)(F)F)cc1)c1ccc(Oc2cc3c(cc2Cl)C(C(=O)O)CCO3)cc1 (stereo not shown) [Example 212, 6-chloro-7-(4-(2-(1-(4-(trifluoromethyl)phenyl)-1H-pyrrol-2-yl)ethylcarbamoyl)phenoxy) chroman-4-carboxylic acid] | 3010
CCOc1ncccc1CCNC(=O)c1ccc(Oc2cc3c(cc2Cl)C(C(=O)O)CCO3)cc1 (stereo not shown) [Example 213, 6-chloro-7-(4-(2-(2-ethoxypyridin-3-yl)ethylcarbamoyl)phenoxy) chroman-4-carboxylic acid] | 188
COc1ccc(-c2cccc(CCNC(=O)c3ccc(Oc4cc5c(cc4Cl)C(C(=O)O)CCO5)cc3)n2)cc1 (stereo not shown) [Example 214, 6-chloro-7-(4-(2-(6-(4-methoxyphenyl)pyridin-2-yl)ethylcarbamoyl)phenoxy)chroman-4-carboxylic acid] | 1350
COc1ccc(-c2cccc(CCNC(=O)c3ccc(Oc4cc5c(cc4Cl)C(C(=O)O)CCO5)cc3)n2)cn1 (stereo not shown) [Example 215, 6-chloro-7-(4-(2-(6′-methoxy-2,3′-bipyridin-6-yl)ethylcarbamoyl)phenoxy)chroman-4-carboxylic acid] | 1600
O=C(NCCn1ccc(Cl)cc1=O)c1ccc(Oc2cc3c(cc2Cl)C(C(=O)O)CCO3)cc1 (stereo not shown) [Example 216, 6-chloro-7-(4-(2-(4-chloro-2-oxopyridin-1(2H)-yl)ethylcarbamoyl)phenoxy)chroman-4-carboxylic acid] | 2230
COc1ccc(CCNC(=O)c2ccc(Oc3cc4c(cc3Cl)C(C(=O)O)CCO4)cc2)cn1 (stereo not shown) [Example 217, 6-chloro-7-(4-(2-(6-methoxypyridin-3-yl)ethylcarbamoyl)phenoxy) chroman-4-carboxylic acid] | 1370
COc1cccc(CCNC(=O)c2ccc(Oc3cc4c(cc3Cl)C(C(=O)O)CCO4)cc2)n1 (stereo not shown) [Example 218, 6-chloro-7-(4-(2-(6-methoxypyridin-2-yl)ethylcarbamoyl)phenoxy) chroman-4-carboxylic acid] | 404
O=C(NCCn1ccc(-c2ccc(Cl)cc2)n1)c1ccc(Oc2cc3c(cc2Cl)C(C(=O)O)CCO3)cc1 (stereo not shown) [Example 219, 6-chloro-7-(4-(2-(3-(4-chlorophenyl)-1H-pyrazol-1-yl)ethylcarbamoyl)phenoxy) chroman-4-carboxylic acid] | 1370
COc1ncc(CCNC(=O)c2ccc(Oc3cc4c(cc3Cl)C(C(=O)O)CCO4)cc2)c(OC)n1 (stereo not shown) [Example 220, 6-chloro-7-(4-(2-(2,4-dimethoxypyrimidin-5-yl)ethylcarbamoyl)phenoxy) chroman-4-carboxylic acid] | 379
O=C(NCCc1cccc(-c2ccccc2Cl)n1)c1ccc(Oc2cc3c(cc2Cl)C(C(=O)O)CCO3)cc1 (stereo not shown) [Example 221, 6-chloro-7-(4-(2-(6-(2-chlorophenyl)pyridin-2-yl)ethylcarbamoyl)phenoxy) chroman-4-carboxylic acid] | 962
CC(C)(C)c1csc(CCNC(=O)c2ccc(Oc3cc4c(cc3Cl)C(C(=O)O)CCO4)cc2)n1 (stereo not shown) [Example 222, 7-(4-(2-(4-tert-butylthiazol-2-yl)ethylcarbamoyl)phenoxy)-6-chlorochroman-4-carboxylic acid] | 1070
O=C(NCCc1cccnc1C1CC1)c1ccc(Oc2cc3c(cc2Cl)C(C(=O)O)CCO3)cc1 (stereo not shown) [Example 223, 6-chloro-7-(4-(2-(2-cyclopropylpyridin-3-yl)ethylcarbamoyl)phenoxy) chroman-4-carboxylic acid] | 210
O=C(NCCc1cccnc1-c1ccccc1Cl)c1ccc(Oc2cc3c(cc2Cl)C(C(=O)O)CCO3)cc1 (stereo not shown) [Example 224, 6-chloro-7-(4-(2-(2-(2-chlorophenyl)pyridin-3-yl)ethylcarbamoyl)phenoxy) chroman-4-carboxylic acid] | 998
CN(C)c1ncccc1CCNC(=O)c1ccc(Oc2cc3c(cc2Cl)C(C(=O)O)CCO3)cc1 (stereo not shown) [Example 225, 6-chloro-7-(4-(2-(2-(dimethylamino)pyridin-3-yl)ethylcarbamoyl)phenoxy) chroman-4-carboxylic acid] | 664
O=C(NCCc1cccnc1N1CCCCC1)c1ccc(Oc2cc3c(cc2Cl)C(C(=O)O)CCO3)cc1 (stereo not shown) [Example 226, 6-chloro-7-(4-(2-(2-(piperidin-1-yl)pyridin-3-yl)ethylcarbamoyl)phenoxy) chroman-4-carboxylic acid] | 1920
